{
  "source": "patent US20250109120A1",
  "about": "“INDOLINE DERIVATIVES FOR TREATMENT AND/OR PREVENTION OF TUMOR OR CELL PROLIFERATIVE AND FIBROSIS DISEASES” (NATIONAL TAIWAN UNIVERSITY, priority 2023, published 2025)",
  "test_system": "A549 cells",
  "experiment": "Wound-healing migration assay",
  "assay_type": "cell-based, human",
  "conditions": "compounds 2 μM, senexin A 5 μM, pirfenidone 1 mM; TGF-β1 10 ng/mL; 24 or 48 h",
  "protocol": "A549 cells were incubated in six-well plates until reaching 90% confluency, scratched with a pipette tip, and immediately photographed (0 h). Cells were incubated with or without compound k (2 μM), senexin A (5 μM), or pirfenidone (1 mM) for 1 h, then treated with TGF-β1 (10 ng/mL) and allowed to migrate into the wound area for 24 or 48 h, and photographed. Cell migration into the wound was quantified using ImageJ software; the solid line indicates time zero. Quantitative assessment of the mean number of cells in the denuded zone is expressed as the mean±SEM from three independent experiments. **p<0.01 compared to the control group; ##p<0.01 and ###p<0.001 compared to TGF-β1-treated group.\nCells were seeded in six-well plates and cultured to 90% confluency, at which time the cellular monolayer was wounded with a sterile 10-μL pipette tip and washed with culture medium to remove detached cells. Cells were incubated in the presence or absence of test compounds for 24 h and photographed. The wound closure percentages were subsequently determined using ImageJ software (National Institutes of Health, USA).",
  "data": [
    {"smiles": "CNC(=O)c1cc(Oc2ccc(NS(=O)(=O)c3ccc4c(c3)C(=C(C)C)C(=O)N4)c(F)c2)ccn1", "note": "[Compound k, 4-(3-Fluoro-4-((2-oxo-3-(propan-2-ylidene)indoline)-5-sulfonamido)phenoxy)-N-methylpicolinamide]", "values": [
      {"measurement": "inhibition of cell migration", "result": "potent inhibition"}
    ]}
  ]
}
